Test results taken from patent US7041665B2, “Benzoxazinone derivatives, their preparation and use as medicaments” (Laboratories del Dr. Esteve, S.A., priority 2002, dated 2006).
pKi: −log10 of the molar value. Structures can show the parent of a compound that is named as a salt.

Key:
male Wistar rats = assay: Nocturnal ingestion test; assay type: in vivo, rat; details: intra-peritoneal, compared to control group
Experimental: Measurement of the Intake in Animal Models
The animals employed were male Wistar rats (200–270 g) supplied by Harlan, S. A. The acclimatization period in our stable before being used in the experimental trials was at least 5 days. In this time the animals were stabled in groups of 5 in translucid cages, with water and food ad libitum. The animals were acclimatized to individual stabling at least 24 hours before conducting the experiment.
The test is carried out in the animal's cage in order to minimize the stress implied in a change of cage, which could affect the intake. Water and food are available at all times ad libitum. Immediately before turning out the lights in the room the animals are weighed and randomly assigned to a treatment group (vehicle or product under study). Immediately after the administration the rats are returned to their cages, where a known amount of food had been placed. The following morning the amount of food remaining in each cage was weighed, and the animals were again weighed.
References: Ants Kask et al., Journal of Pharmacology, 414 (2001) 215–224; Andrew V. Turnbull et al., Diabetes, Vol. 51, August 2002
Effect of Some Compounds of the Invention on Nocturnal Ingestion in Male Wistar Rats (Intra-Peritoneal Administration)

Neuropeptide Y2 = molecular target: T1, Neuropeptide Y2 (Rattus norvegicus, UniProt Q9ERC0); assay: Binding to Neuropeptide Y2, [125I]-PYY(3-36), rat hypoccampus membranes; details: radioligand [125I]-PYY3-36, 25° C., 150 minutes
T1 construct: their brains are rapidly removed and the hypoccampus is dissected; from tissue; host or cells: rat hippocampus membranes (male Wistar rats)
T1 sequence (Q9ERC0 1-381): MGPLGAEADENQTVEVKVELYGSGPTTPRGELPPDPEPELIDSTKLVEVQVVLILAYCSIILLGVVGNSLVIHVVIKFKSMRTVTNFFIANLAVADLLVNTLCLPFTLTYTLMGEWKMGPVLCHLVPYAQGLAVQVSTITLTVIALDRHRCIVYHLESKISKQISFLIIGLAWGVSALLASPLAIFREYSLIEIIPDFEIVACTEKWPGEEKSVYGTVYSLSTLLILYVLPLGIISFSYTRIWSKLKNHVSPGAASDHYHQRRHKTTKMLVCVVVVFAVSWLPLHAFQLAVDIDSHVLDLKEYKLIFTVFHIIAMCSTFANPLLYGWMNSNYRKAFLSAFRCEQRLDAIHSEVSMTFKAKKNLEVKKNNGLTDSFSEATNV
Experimental: Binding to Neuropeptide Y2
Male Wistar rats are sacrificed by decapitation, their brains are rapidly removed and the hypoccampus is dissected. Homogenization is performed in cold conditions in the buffer: 120 mM NaCl, 4.7 mM KCl, 2.2 mM CaCl2, 1.2 mM KH2PO4, 1.2 mM MgSO4, 25 mM NaHCO3, 5.5 mM glucose, pH 7.4, by means of a Ultra-Turrax homogenizer for 15 seconds at 13,500 rpm. The ratio between fresh tissue weight and buffer volume is of ten times. The membrane is centrifuged for 10 min at 48,000 g. The supernatant is discarded and the pellet is washed, resuspended and recentrifuged two more times. […] Incubation volume: 500 μl. […] The filters are cold-washed three times with three milliliters of the same buffer used in homogenization. […] Non-specific binding is determined in the presence of 1 μM of pNPY (porcin Neuropeptide Y). The assays are performed in triplicate.

Neuropeptide Y5 = molecular target: T2, Neuropeptide Y5 (Rattus norvegicus, UniProt Q63634); assay: Binding to Neuropeptide Y5, [125I]-PYY(3-36), BIBP 3226 sat., rat cortex membranes; details: radioligand [125I]-PYY3-36, 1 μM BIBP 3226 to saturate Y1, 25° C., 120 minutes
T2 construct: their brains are rapidly removed and the cortex is dissected; from tissue; host or cells: rat brain cortex membranes (male Wistar rats)
T2 sequence (Q63634 1-445): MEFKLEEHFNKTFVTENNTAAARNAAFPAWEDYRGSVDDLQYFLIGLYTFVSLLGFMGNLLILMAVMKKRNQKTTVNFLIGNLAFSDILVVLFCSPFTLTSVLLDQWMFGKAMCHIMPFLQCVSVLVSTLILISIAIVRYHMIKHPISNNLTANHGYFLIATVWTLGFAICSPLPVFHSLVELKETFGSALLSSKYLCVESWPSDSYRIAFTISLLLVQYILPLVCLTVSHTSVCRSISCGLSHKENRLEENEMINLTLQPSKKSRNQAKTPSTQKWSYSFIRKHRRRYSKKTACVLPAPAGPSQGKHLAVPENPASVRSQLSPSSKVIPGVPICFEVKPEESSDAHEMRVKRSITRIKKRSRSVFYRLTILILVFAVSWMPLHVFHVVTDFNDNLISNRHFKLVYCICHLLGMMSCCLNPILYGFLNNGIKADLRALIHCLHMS
Experimental: Binding to Neuropeptide Y5
Male Wistar rats are sacrificed by decapitation, their brains are rapidly removed and the cortex is dissected. Homogenization is performed in cold conditions in the buffer: 120 mM NaCl, 4.7 mM KCl, 2.2 mM CaCl2, 1.2 mM KH2PO4, 1.2 mM MgSO4, 25 mM NaHCO3, 5.5 mM glucose, pH 7.4, by means of a Ultra-Turrax homogenizer for 15 seconds at 13,500 rpm. The ratio between fresh tissue weight and buffer volume is of twenty times. The membrane is centrifuged for 10 min at 48,000 g. The supernatant is discarded and the pellet is washed, resuspended and recentrifuged three more times. The final membrane resuspension is performed in the buffer: 120 mM NaCl, 4.7 mM KCl, 2.2 mM CaCl2, 1.2 mM KH2PO4, 1.2 mM MgSO4, 25 mM NaHCO3, 5.5 mM glucose, 0.1% BSA, 0.05% bacitracin, pH 7.4, at a ratio of 20 ml/g fresh tissue. […] Incubation volume: 500 μl. […] The filters are cold-washed three times with two milliliters of the same buffer used in homogenization. […] Non-specific binding is determined in the presence of 1 μM of pNPY (porcin Neuropeptide Y). The assays are performed in triplicate.

1-{1-[N-(9-oxo-9H-fluoren-3-yl)aminocarbonylmethyl]-4-(piperidinyl)}-8-methyl-1,4-dihydro-2H-3,1-benzoxazin-2-one hydrochloride [Example 35]
Effect on nocturnal ingestion: body weight of the animals (male Wistar rats; 20 mg/kg): reduces body
Effect on nocturnal ingestion: food intake (male Wistar rats; 20 mg/kg): Reduces food intake

O=C(CN1CCC(N2C(=O)OCc3ccccc32)CC1)Nc1ccc2c(c1)CCCC2=O [Example 6, 1-{1-[N-(1-oxo-1,2,3,4-tetrahydronaphthalen-6-yl)aminocarbonylmethyl]-4-(piperidinyl)}-1,4-dihydro-2H-3,1-benzoxazin-2-one hydrochloride]
pKi (Neuropeptide Y2): < 6.00
pKi (Neuropeptide Y5): 7.74

Cc1ccc2c(c1)COC(=O)N2C1CCN(CC(=O)Nc2ccc3c(c2)-c2ccccc2C3=O)CC1 (as salt: HCl) [Example 20, 1-{1-[N-(9-oxo-9H-fluoren-3-yl)aminocarbonylmethyl]-4-(piperidinyl)}-6-methyl-1,4-dihydro-2 H-3,1-benzoxazin-2-one hydrochloride]
melting point: 250 to 252 °C

O=C(CN1CCC(N2C(=O)OCc3ccccc32)CC1)Nc1ccc2c(c1)-c1ccccc1C2=O [Example 3, 1-{1-[N-(9-oxo-9H-fluoren-3-yl)aminocarbonylmethyl]-4-(piperidinyl)}-1,4-dihydro-2H-3,1-benzoxazin-2-one hydrochloride]
pKi (Neuropeptide Y5): 8.19

Cc1ccc2c(c1)COC(=O)N2C1CCN(CC(=O)Nc2ccc3c(c2)-c2ccccc2C3=O)CC1 [Example 20, 1-{1-[N-(9-oxo-9H-fluoren-3-yl)aminocarbonylmethyl]-4-(piperidinyl)}-6-methyl-1,4-dihydro-2 H-3,1-benzoxazin-2-one hydrochloride]
pKi (Neuropeptide Y5): 9.06
Effect on nocturnal ingestion: body weight of the animals (male Wistar rats; 40 mg/kg): reduces body
Effect on nocturnal ingestion: food intake (male Wistar rats; 40 mg/kg): Reduces food intake

CCn1c2ccccc2c2cc(NC(=O)CN3CCC(N4C(=O)OCc5ccccc54)CC3)ccc21 [Example 18, 1-{1-[N-(9-ethyl-9H-carbazol-3-yl)aminocarbonylmethyl]-4-(piperidinyl)}-1,4-dihydro-2H-3,1-benzoxazin-2-one hydrochloride]
Effect on nocturnal ingestion: body weight of the animals (male Wistar rats; 40 mg/kg): reduces body
Effect on nocturnal ingestion: food intake (male Wistar rats; 40 mg/kg): Reduces food intake

O=C(CN1CCC(N2C(=O)OCc3ccccc32)CC1)Nc1ccc2c(c1)CCCC2=O (as salt: HCl) [Example 6, 1-{1-[N-(1-oxo-1,2,3,4-tetrahydronaphthalen-6-yl)aminocarbonylmethyl]-4-(piperidinyl)}-1,4-dihydro-2H-3,1-benzoxazin-2-one hydrochloride]
melting point: 260 to 264 °C

O=C(CN1CCC(N2C(=O)OCc3ccccc32)CC1)Nc1ccc2c(c1)-c1ccccc1C2=O (as salt: HCl) [Example 3, 1-{1-[N-(9-oxo-9H-fluoren-3-yl)aminocarbonylmethyl]-4-(piperidinyl)}-1,4-dihydro-2H-3,1-benzoxazin-2-one hydrochloride]
melting point: > 275 °C
